Source: ChEMBL document CHEMBL4831544, “Discovery of IHMT-EZH2-115 as a Potent and Selective Enhancer of Zeste Homolog 2 (EZH2) Inhibitor for the Treatment of B-Cell Lymphomas” (J Med Chem, 2021)
Active and inactive are the calls of the source. The calls are words filed in the database; no cut-off is given here.

How the values were obtained:
[1] = test system: Raji; assay: Antiproliferative activity against human Raji cells expressing wild type EZH2 assessed as inhibition of cell growth measured after 6 days by CellTiter-Glo luminescent assay; details: 144 h
[2] = target: Histone-lysine N-methyltransferase 2A (Homo sapiens) (UniProt Q03164); assay: Inhibition of MLL1 (unknown origin) at 10 uM using SAM as substrate measured up to 960 mins by AlphaScreen microplate reader assay relative to control; details: time min <=960
Sequence of Histone-lysine N-methyltransferase 2A (Homo sapiens) (Q03164 1-2718 limits assumed): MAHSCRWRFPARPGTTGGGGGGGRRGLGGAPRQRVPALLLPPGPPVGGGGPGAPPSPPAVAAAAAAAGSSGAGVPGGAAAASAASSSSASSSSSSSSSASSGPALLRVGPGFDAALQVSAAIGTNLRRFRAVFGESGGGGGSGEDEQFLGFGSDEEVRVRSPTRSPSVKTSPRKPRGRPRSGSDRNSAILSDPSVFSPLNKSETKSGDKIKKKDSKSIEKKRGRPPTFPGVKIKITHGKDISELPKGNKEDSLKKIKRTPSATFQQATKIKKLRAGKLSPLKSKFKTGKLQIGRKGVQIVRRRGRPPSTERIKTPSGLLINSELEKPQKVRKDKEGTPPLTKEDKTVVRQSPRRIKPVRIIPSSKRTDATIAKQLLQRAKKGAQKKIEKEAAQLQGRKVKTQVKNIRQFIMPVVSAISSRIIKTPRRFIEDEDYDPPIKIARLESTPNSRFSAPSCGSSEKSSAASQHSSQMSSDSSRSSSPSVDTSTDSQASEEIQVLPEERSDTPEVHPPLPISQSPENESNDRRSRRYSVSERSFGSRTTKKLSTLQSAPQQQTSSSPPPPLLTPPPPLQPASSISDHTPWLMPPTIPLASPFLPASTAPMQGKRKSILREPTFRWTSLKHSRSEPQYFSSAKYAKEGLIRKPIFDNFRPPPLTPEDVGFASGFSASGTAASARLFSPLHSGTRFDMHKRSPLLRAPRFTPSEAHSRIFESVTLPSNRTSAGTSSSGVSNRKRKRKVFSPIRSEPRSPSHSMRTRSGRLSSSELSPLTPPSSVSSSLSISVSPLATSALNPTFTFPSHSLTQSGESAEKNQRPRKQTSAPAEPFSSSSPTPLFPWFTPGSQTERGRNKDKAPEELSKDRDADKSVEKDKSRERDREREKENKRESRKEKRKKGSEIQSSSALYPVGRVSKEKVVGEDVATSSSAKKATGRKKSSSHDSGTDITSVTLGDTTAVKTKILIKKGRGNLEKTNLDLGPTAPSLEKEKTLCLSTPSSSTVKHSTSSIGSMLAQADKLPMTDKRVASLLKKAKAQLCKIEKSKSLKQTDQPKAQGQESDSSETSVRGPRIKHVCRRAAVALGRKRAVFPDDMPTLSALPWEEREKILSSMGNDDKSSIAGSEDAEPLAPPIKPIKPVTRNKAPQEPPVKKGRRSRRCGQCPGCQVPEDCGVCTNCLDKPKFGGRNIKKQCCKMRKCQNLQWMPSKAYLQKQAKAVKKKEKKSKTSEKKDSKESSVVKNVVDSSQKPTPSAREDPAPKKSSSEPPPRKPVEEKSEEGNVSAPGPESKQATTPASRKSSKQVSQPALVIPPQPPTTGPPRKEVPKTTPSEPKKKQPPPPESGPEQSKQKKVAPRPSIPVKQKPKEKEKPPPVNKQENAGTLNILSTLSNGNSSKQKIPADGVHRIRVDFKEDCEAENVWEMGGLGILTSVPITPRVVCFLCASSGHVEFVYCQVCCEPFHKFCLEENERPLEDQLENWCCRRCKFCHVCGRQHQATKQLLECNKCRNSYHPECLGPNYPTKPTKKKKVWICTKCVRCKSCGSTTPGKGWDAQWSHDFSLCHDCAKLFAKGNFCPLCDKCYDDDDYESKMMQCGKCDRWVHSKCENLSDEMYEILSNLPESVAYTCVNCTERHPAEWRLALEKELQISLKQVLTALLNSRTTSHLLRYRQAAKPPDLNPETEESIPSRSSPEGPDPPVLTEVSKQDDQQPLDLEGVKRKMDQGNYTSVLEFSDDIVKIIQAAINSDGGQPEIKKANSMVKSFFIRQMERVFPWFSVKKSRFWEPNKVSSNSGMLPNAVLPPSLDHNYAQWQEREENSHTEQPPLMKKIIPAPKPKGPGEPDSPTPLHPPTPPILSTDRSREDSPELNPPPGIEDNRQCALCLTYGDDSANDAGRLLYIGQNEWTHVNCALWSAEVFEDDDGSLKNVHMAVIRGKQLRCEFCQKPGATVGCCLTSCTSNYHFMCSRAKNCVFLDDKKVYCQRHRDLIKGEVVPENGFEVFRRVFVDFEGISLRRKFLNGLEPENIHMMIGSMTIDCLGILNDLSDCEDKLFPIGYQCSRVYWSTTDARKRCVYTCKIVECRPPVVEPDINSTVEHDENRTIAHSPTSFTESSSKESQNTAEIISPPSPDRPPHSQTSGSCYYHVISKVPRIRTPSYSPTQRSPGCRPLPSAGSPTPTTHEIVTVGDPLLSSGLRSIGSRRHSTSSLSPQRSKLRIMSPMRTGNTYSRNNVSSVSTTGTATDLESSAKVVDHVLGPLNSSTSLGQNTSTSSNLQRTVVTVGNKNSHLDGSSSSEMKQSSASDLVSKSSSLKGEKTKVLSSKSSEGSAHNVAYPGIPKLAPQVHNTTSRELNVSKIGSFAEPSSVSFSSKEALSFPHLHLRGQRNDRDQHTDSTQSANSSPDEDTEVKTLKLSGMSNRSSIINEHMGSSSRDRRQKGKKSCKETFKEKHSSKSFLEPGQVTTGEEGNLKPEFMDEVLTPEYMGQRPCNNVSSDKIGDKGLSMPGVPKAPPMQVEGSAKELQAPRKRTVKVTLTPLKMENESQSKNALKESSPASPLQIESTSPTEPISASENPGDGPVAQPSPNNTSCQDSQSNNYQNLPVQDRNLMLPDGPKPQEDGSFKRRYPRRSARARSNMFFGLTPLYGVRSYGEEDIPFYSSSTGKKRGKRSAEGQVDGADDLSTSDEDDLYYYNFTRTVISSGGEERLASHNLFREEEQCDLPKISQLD
Sequence of Histone-lysine N-methyltransferase 2A (Homo sapiens) (Q03164 2719-3969 limits assumed): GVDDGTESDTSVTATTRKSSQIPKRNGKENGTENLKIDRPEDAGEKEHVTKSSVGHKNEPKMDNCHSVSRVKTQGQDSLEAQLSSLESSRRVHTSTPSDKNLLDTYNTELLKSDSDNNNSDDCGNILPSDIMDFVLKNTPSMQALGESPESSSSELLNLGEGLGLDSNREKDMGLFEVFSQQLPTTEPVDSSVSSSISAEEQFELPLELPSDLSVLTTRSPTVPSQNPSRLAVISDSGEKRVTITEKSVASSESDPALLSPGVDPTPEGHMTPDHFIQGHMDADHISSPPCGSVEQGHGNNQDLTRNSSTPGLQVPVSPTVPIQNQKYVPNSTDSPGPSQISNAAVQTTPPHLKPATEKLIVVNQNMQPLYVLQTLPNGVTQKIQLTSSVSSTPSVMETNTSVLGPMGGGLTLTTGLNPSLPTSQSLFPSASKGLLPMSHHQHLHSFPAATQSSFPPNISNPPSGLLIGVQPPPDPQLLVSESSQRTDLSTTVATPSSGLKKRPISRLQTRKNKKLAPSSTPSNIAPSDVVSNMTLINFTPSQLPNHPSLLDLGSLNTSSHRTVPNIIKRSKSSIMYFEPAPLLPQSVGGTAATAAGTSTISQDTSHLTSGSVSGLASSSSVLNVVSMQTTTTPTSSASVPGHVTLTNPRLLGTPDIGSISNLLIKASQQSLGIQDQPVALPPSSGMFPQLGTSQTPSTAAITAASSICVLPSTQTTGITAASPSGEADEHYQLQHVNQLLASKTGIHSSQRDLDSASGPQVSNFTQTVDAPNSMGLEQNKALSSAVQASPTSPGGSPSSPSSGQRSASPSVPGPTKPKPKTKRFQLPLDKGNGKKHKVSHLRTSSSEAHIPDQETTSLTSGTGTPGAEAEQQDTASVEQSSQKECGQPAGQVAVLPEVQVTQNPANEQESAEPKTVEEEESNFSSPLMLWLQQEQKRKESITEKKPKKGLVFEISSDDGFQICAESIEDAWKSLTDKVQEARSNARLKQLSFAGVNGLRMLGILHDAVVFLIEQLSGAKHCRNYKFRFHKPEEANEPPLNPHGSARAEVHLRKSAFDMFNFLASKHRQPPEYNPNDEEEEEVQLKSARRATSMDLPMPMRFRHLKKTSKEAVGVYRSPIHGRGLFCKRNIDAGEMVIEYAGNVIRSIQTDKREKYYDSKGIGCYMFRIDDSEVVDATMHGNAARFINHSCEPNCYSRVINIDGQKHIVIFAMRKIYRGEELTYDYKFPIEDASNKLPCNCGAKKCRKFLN

[3] = Toxicity in NCG mouse xenografted with human KARPAS-422 cells harboring EZH2 Y641N mutant assessed as effect on body weight at 50 to 200 mg/kg, po BID via gavage measured after 28 days; type: organism-based; details: in vivo, 672 h, dose 50-200 mg/kg, time 28 day
[4] = Apparent volume of distribution in mouse at 10 mg/kg, po measured up to 24 hrs by LC-MS/MS analysis; type: ADME, organism-based; details: in vivo
[5] = AUC (0 to infinity) in rat at 1 mg/kg, iv; type: ADME, organism-based; design: route intravenous, time infinity, dose 1 mg/kg; details: in vivo
[6] = test system: SUD4; assay: Antiproliferative activity against human SU-DHL-4 cells harboring EZH2 Y641S mutant assessed as inhibition of cell growth measured after 6 days by CellTiter-Glo luminescent assay; type: functional; details: SU-DHL-4, 144 h, time 6 day
[7] = test system: SU-DHL-6; assay: Antiproliferative activity against human SU-DHL-6 cells harboring EZH2 Y641N mutant assessed as inhibition of cell growth measured after 6 days by CellTiter-Glo luminescent assay; type: functional; details: SU-DHL-6, 144 h, time 6 day
[8] = target: Histone-lysine N-methyltransferase NSD2 (Homo sapiens) (UniProt O96028); assay: Inhibition of NSD2 (unknown origin) at 10 uM using SAM as substrate measured up to 960 mins by AlphaScreen microplate reader assay relative to control; details: time min <=960
[9] = Half life in rat at 1 mg/kg, iv; type: ADME, organism-based; details: in vivo
[10] = target: Protein arginine N-methyltransferase 5 (Homo sapiens) (UniProt O14744); assay: Inhibition of PRMT5 (unknown origin) at 10 uM using SAM as substrate measured up to 960 mins by AlphaScreen microplate reader assay relative to control; details: time min <=960
[11] = test system: Histone-lysine N-methyltransferase EZH2 (Homo sapiens), Q15910 [P132S]; assay: Inhibition of EZH2 P132S mutant (unknown origin) at 10 uM using SAM as substrate measured up to 960 mins by AlphaScreen microplate reader assay relative to control; details: time min <=960
Sequence of Histone-lysine N-methyltransferase EZH2 (Homo sapiens), Q15910 [P132S] (Q15910 whole entry P132S): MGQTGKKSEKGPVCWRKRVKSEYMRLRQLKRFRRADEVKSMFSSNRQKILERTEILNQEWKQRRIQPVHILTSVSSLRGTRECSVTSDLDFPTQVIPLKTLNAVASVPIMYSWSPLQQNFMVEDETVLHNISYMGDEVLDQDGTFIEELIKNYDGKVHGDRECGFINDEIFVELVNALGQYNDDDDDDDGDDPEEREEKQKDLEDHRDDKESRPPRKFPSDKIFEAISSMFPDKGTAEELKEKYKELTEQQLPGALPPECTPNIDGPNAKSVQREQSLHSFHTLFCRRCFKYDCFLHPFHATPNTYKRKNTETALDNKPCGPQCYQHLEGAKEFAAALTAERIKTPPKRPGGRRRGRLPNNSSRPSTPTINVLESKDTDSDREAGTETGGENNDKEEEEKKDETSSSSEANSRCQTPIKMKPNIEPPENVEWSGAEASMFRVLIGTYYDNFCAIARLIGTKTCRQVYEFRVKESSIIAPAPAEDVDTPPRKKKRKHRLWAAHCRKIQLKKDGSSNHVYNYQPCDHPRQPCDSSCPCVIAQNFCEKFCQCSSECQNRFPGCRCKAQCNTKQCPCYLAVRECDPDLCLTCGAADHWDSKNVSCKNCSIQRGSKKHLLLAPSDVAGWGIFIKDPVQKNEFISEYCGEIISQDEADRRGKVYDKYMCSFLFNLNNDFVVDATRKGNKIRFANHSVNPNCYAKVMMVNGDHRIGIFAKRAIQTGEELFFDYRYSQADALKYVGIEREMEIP

[12] = Clearance in mouse at 1 mg/kg, iv measured up to 24 hrs by LC-MS/MS analysis; type: ADME, organism-based; details: in vivo
[13] = Clearance in rat at 1 mg/kg, iv; type: ADME, organism-based; details: in vivo
[14] = AUC (0 to t) in mouse at 10 mg/kg, po measured up to 24 hrs by LC-MS/MS analysis; type: ADME, organism-based; design: route oral, dose 10 mg/kg, time <=24; details: in vivo
[15] = target: F-box only protein 11 (Homo sapiens) (UniProt Q86XK2); assay: Inhibition of PRMT9 (unknown origin) at 10 uM using SAM as substrate measured up to 960 mins by AlphaScreen microplate reader assay relative to control; details: time min <=960
[16] = species on record: Homo sapiens; assay: Inhibition of EZH2 (unknown origin) interaction with EED (unknown origin) at 10 uM relative to control
[17] = AUC (0 to infinity) in mouse at 10 mg/kg, po measured up to 24 hrs by LC-MS/MS analysis; type: ADME, organism-based; design: route oral, dose 10 mg/kg, time <=24; details: in vivo
[18] = test system: KARPAS-422; assay: Antitumor activity against human KARPAS-422 cells harboring EZH2 Y641N mutant xenografted in NCG mouse assessed as tumor regression at 200 mg/kg, po BID via gavage measured within 10 days; type: functional, organism-based; details: time day <10
[19] = Half life in mouse at 10 mg/kg, po measured up to 24 hrs by LC-MS/MS analysis; type: ADME, organism-based; details: in vivo
[20] = target: N-lysine methyltransferase SMYD2 (Homo sapiens) (UniProt Q9NRG4); assay: Inhibition of SMYD2 (unknown origin) at 10 uM using SAM as substrate measured up to 960 mins by AlphaScreen microplate reader assay relative to control; details: time min <=960
[21] = test system: Pfeiffer; assay: Antitumor activity against human Pfeiffer cells harboring EZH2 A677G mutant xenografted in NCG mouse assessed as tumor growth inhibition at 50 mg/kg, po BID via gavage measured after 28 days relative to control; type: functional; details: 672 h, time 28 day, read-out: TGI
[22] = Clearance in rat at 10 mg/kg, po; type: ADME, organism-based; details: in vivo
[23] = AUC (0 to infinity) in rat at 10 mg/kg, po; type: ADME, organism-based; design: time infinity, route oral, dose 10 mg/kg; details: in vivo
[24] = test system: Pfeiffer; assay: Antitumor activity against human Pfeiffer cells harboring EZH2 A677G mutant xenografted in NCG mouse assessed as tumor growth inhibition at 200 mg/kg, po BID via gavage measured after 28 days relative to control; type: functional; details: 672 h, time 28 day, read-out: TGI
[25] = target: Protein arginine N-methyltransferase 8 (Homo sapiens) (UniProt Q9NR22); assay: Inhibition of PRMT8 (unknown origin) at 10 uM using SAM as substrate measured up to 960 mins by AlphaScreen microplate reader assay relative to control; details: time min <=960
[26] = Half life in rat at 10 mg/kg, po; type: ADME, organism-based; details: in vivo
[27] = Half life in mouse at 1 mg/kg, iv measured up to 24 hrs by LC-MS/MS analysis; type: ADME, organism-based; details: in vivo
[28] = target: Histone-lysine N-methyltransferase SMYD3 (Homo sapiens) (UniProt Q9H7B4); assay: Inhibition of SMYD3 (unknown origin) at 10 uM using SAM as substrate measured up to 960 mins by AlphaScreen microplate reader assay relative to control; details: time min <=960
[29] = Antiproliferative activity against human WSUDLCL2 cells harboring EZH2 Y641F mutant assessed as inhibition of cell growth measured after 6 days by CellTiter-Glo luminescent assay; type: functional; details: WSUDLCL2, 144 h, time 6 day
[30] = test system: Histone-lysine N-methyltransferase EZH2 (Homo sapiens), Q15910 [Y641S]; assay: Inhibition of EZH2 Y641S mutant (unknown origin) at 10 uM using SAM as substrate measured up to 960 mins by AlphaScreen microplate reader assay relative to control; details: time min <=960
Sequence of Histone-lysine N-methyltransferase EZH2 (Homo sapiens), Q15910 [Y641S] (Q15910 whole entry Y641S): as the sequence (Q15910 whole entry P132S) above, with S132P, Y641S counted along it

[31] = target: Histone-lysine N-methyltransferase EZH1 (Homo sapiens) (UniProt Q92800); assay: Inhibition of EZH1 (unknown origin) at 10 uM using SAM as substrate measured up to 960 mins by AlphaScreen microplate reader assay relative to control; details: time min <=960
[32] = test system: KARPAS-422; assay: Antitumor activity against human KARPAS-422 cells harboring EZH2 Y641N mutant xenografted in NCG mouse assessed as change in tumor weight at 50 mg/kg, po BID via gavage measured after 28 days (reference value: 2.14 g); type: functional; details: time 28 day
[33] = target: Histone-lysine N-methyltransferase EZH2 (Homo sapiens) (UniProt Q15910); assay: Inhibition of EZH2 (unknown origin) at 10 uM using SAM as substrate measured up to 960 mins by AlphaScreen microplate reader assay relative to control; details: time min <=960
Sequence of Histone-lysine N-methyltransferase EZH2 (Homo sapiens) (Q15910 whole entry, looked up): as the sequence (Q15910 whole entry P132S) above, with S132P counted along it

[34] = test system: Pfeiffer; assay: Antiproliferative activity against human Pfeiffer cells harboring EZH2 A677G mutant assessed as inhibition of cell growth measured after 6 days by CellTiter-Glo luminescent assay; type: functional; details: 144 h, time 6 day

GI50 [1]: > 10 µM
inhibition [2]: 12%
Vz [4]: 18.638 L/kg
AUC(0-inf) [5]: 0.195 µg·h/mL
GI50 [7]: 1.1 µM
inhibition [8]: 10%
half-life [9]: 1.82 h
inhibition [10]: 0%
inhibition [11]: 100%
CL [12]: 2.685 L/h/kg
clearance [13]: 5.13 L/h/kg
AUC(0-t) at 24 h [14]: 1 µg·h/mL
inhibition [15]: 9%
inhibition [16]: 21%
AUC(0-inf) [17]: 1.01 µg·h/mL
t1/2 [19]: 1.3 h
inhibition [20]: 0%
CL/F [22]: 17.4 L/h/kg
AUC(0-inf) [23]: 0.604 µg·h/mL
inhibition [25]: 0%
half-life [26]: 1.45 h
t1/2 [27]: 5.38 h
inhibition [28]: 16%
inhibition [30]: 90%
inhibition [31]: 92%
inhibition [33]: 100%
Compound: CCN(C(=O)C1CC1)c1cc(-c2ccc(N3CCN(CC4CC4)CC3)nc2C)cc(C(=O)NCc2c(C)cc(C)[nH]c2=O)c1C
Activity [3]: Non-Toxic
GI50 [6]: 3.87 µM
Activity [18]: Active
inhibition in vivo at 50 mg/kg [21]: 91.8%
inhibition in vivo at 200 mg/kg [24]: 100%
GI50 [29]: 0.14 µM
Activity [32]: 1.17 g
GI50 [34]: 0.003 µM
